Experimental data: ChEMBL document CHEMBL3351308, “Allosteric modulation of the G protein-coupled US28 receptor of human cytomegalovirus: are the small-weight inverse agonist of US28 'camouflaged' agonists?” (Bioorg Med Chem Lett, 2014)
Residue numbers refer to the chain shown, from its start. Calls of active or inactive are those of the source. The rule behind the calls is not given here.

How the values were obtained:
[1] = target: T1, G protein-coupled receptor (Human betaherpesvirus 5) (UniProt Q9IP65); test: Allosteric modulatory activity at FLAG-tagged human cytomegalovirus US28 receptor delta300 mutant expressed in HEK293T cells at 10 uM in presence of CX3CL1/Fractalkine by PathDetectElk1 assay; format: cell-based; conditions: HEK-293T
T1 sequence (whole entry): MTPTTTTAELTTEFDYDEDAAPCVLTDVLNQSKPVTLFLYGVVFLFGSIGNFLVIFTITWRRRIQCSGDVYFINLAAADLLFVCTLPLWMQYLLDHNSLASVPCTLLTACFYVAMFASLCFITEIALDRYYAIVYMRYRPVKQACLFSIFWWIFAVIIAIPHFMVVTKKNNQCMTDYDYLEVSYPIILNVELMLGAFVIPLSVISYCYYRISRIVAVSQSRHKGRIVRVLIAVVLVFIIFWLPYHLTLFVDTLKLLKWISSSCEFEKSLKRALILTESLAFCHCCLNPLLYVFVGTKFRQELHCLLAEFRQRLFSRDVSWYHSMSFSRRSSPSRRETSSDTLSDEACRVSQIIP

[2] = target: T1, G protein-coupled receptor (Human betaherpesvirus 5); test: Allosteric modulatory activity at FLAG-tagged human cytomegalovirus US28 receptor delta300 mutant expressed in HEK293T cells assessed as reduction in CCL5/Rantes-induced response by PathDetectElk1 assay; format: cell-based; conditions: HEK-293T
[3] = target: T1, G protein-coupled receptor (Human betaherpesvirus 5); test: Allosteric modulatory activity at FLAG-tagged human cytomegalovirus US28 receptor delta300 mutant expressed in HEK293T cells assessed as reduction in CX3CL1/Fractalkine-induced response by PathDetectElk1 assay; format: cell-based; conditions: HEK-293T
[4] = target: G protein-coupled receptor (Human betaherpesvirus 5, UniProt Q9IP65); test: Allosteric modulatory activity at FLAG-tagged human cytomegalovirus US28 receptor delta300 mutant expressed in HEK293T cells by PathDetectElk1 assay; format: cell-based; conditions: hek-293t
[5] = target: T2, G-protein coupled receptor homolog US28 (Human cytomegalovirus (strain AD169) (HHV-5) (Human herpesvirus 5), UniProt P69332); test: Allosteric modulatory activity at FLAG-tagged wild type human cytomegalovirus US28 receptor expressed in HEK293T cells by PathDetectElk1 assay; format: cell-based, Human betaherpesvirus 5, HEK-293T
T2 sequence (P69332 whole entry): T1 sequence (whole entry) with A21T, L25F, N170D, K267R, A346V

[6] = target: T1, G protein-coupled receptor (Human betaherpesvirus 5); test: Allosteric modulatory activity at FLAG-tagged human cytomegalovirus US28 receptor delta300 mutant expressed in HEK293T cells by PathDetectElk1 assay relative to basal level; format: cell-based; conditions: HEK-293T
[7] = target: T3, G-protein coupled receptor homolog US28 (Human cytomegalovirus (strain AD169) (HHV-5) (Human herpesvirus 5)) (UniProt P69332); test: Allosteric modulatory activity at FLAG-tagged wild type human cytomegalovirus US28 receptor expressed in HEK293T cells by PathDetectElk1 assay relative to basal level; format: cell-based; set-up: concentration or dose not given beside the values; conditions: Human betaherpesvirus 5; HEK-293T
T3 sequence (whole entry): T1 sequence (whole entry) with A21T, L25F, N170D, K267R, A346V

[8] = target: T1, G protein-coupled receptor (Human betaherpesvirus 5); test: Effect on CX3CL1/Fractalkine binding to FLAG-tagged human cytomegalovirus US28 receptor delta300 mutant expressed in HEK293T cells; format: cell-based; conditions: HEK-293T
[9] = target: T1, G protein-coupled receptor (Human betaherpesvirus 5); test: Increase in CX3CL1/Fractalkine binding to FLAG-tagged human cytomegalovirus US28 receptor delta300 mutant expressed in HEK293T cells; format: cell-based; conditions: HEK-293T

SMILES	Activity [1]	Activity [2]	Activity [3]	EC50 [4] [µM]	pEC50 [4]	EC50 [5] [µM]	Efficacy [6] [%]	Efficacy [7] [%]	Activity [8]	Activity [9]
CC1(COC(=O)Cc2ccccc2)Cc2ccccc2CN1C(=O)Cc1ccccc1 (stereo not given)	inactive	Active	Dose-dependent effect	2.5	5.59	3.4	-29	-37	inactive	–
CCCCCCCCCC(=O)N(CCN(C)C)CC1(C)Cc2ccccc2C(=O)N1 (stereo not given)	–	–	–	> 10	< 5	1.5	> 180	-20	–	–
CSc1ccc2c(c1)C(N1CCN(C)CC1)Cc1ccccc1S2 (stereo not given) [METITEPINE]	–	–	–	0.33	6.48	0.35	110	10	–	–
N#CC(CCCN1CCC(O)(c2ccc(Cl)cc2)CC1)(c1ccccc1)c1ccccc1 [BERLEX COMPOUND]	–	–	–	> 10	< 5	4.5	> 180	-22	–	–
CC1(CCO)Cc2ccccc2C(=O)N1c1ccccc1 (stereo not given)	–	–	–	3.1	5.51	1	-21	-14	–	–
CC1(CO)Cc2ccccc2C(=O)N1c1ccccc1 (stereo not given)	–	–	–	0.93	6.03	4.4	27	41	–	Active
